Test results taken from patent publication US20190358206A1, “TOPICAL FORMULATIONS OF BIARYL HETEROCYCLIC COMPOUNDS AND METHODS OF USE THEREOF” (Melinta Subsidiary Corp., priority 2016, published 2019).
Converted amounts (≈) assume the structure as drawn.

Key:
[1] = system: Staphylococcus aureus 01A1095, Mac-R; test: MIC against ribosome-based resistance phenotypes; type: cell-based; settings: read-out: Minimum Inhibitory Concentration (MIC)
S. aureus ATCC 29213 [2] = test: Agar dilution MIC (CLSI reference method); type: cell-based; settings: Staphylococcus aureus, ATCC29213
S. aureus ATCC 29213 [3] = test: Broth microdilution MIC (CLSI); type: cell-based
[4] = system: B. thetaiotaomicron ATCC 29741; test: microbe, parasite or virus in culture; type: cell-based; settings: for MIC: Bacteroides thetaiotaomicron, ATCC29741, read-out: MIC, Broth
[5] = Solubility of salts in water by HPLC at 23° C.; type: physicochemical; settings: for Adjusted pH: pH after adjustment to approximately 3.5; for Native pH: supernatant of saturated solution in water
Procedure: In another set of experiments, solubility of various radezolid salts was determined by HPLC. Approximately 1 mL of saturated solution (with excess of solid in solution) of each salt was prepared in water. The mixture was further mixed overnight on a slurry wheel then centrifuged on a desktop centrifuge at maximum speed for approximately 5 min. The supernatant was collected, and pH was measured. Solubility was determined at the native pH. Then the pH was adjusted to approximately 3.5 with sodium hydroxide solution or an acid solution in which salt was generated. The supernatant was filtered through a 0.2 µm nylon syringe filter and diluted into 0.1% formic acid solution immediately after filtration for HPLC. All HPLC analyses were performed using an Agilent 1100 series liquid chromatograph equipped with a diode array detector, degasser, quaternary pump, and an autosampler. […] The column temperature was set to 30° C., and the detector wavelength was 270 nm with a bandwidth of 8 nm and a reference wavelength of 360 nm. The mobile phase A was 0.1% formic acid in water (HPLC grade), mobile phase B was 0.1% formic acid in methanol (HPLC grade). […] The injection volume was 5 μL.

[6] = Dynamic vapor sorption/desorption (DVS); type: physicochemical
Procedure: Dynamic vapor sorption/desorption (DVS) data were collected on a VTI SGA-100 Vapor Sorption Analyzer. […] Samples were not dried prior to analysis. Equilibrium criteria used for analysis were less than 0.0100% weight change in 5 minutes, with a maximum equilibration time of 3 hours if the weight criterion was not met. Data were not corrected for the initial moisture content of the samples. Sodium chloride and polyvinylpyrrolidine (PVP) were used as calibration standards.

physchem = type: physicochemical; settings: pH 5.5, aqueous buffer
[7] = Solubility of salts in approved topical solvents; type: physicochemical
Procedure: The solubility of radezolid HCl salt in various approved topical solvents was measured at 19-21° C. by adding a known amount of the radezolid HCl salt to a known amount of the solvent. Increasing amounts of the radezolid HCl salt were added if the solvent was not saturated.
The solubility of radezolid esylate and mesylate salts in various approved topical solvents was measured at 19-21° C. by adding a known amount of the radezolid salts to a known amount of the solvent. Increasing amounts of the radezolid salts were added if the solvent was not saturated.

[8] = in vivo
[9] = Long-term rat safety study (body weight, survival, clinical pathology, exposure)
P. acnes ATCC 11828 = test: Agar dilution MIC (CLSI reference method); type: cell-based; settings: P. acnes (isolates of Table 1)
[10] = Solubility of free base in oily excipients; type: physicochemical; settings: 19-21° C.
Procedure: The solubility of radezolid free base in various oily excipients was measured at 19-21° C. by adding a known amount of the free base to a known amount of the oily excipients. Increasing amounts of the free base were added if the oily excipient was not saturated.
In some embodiments, facial acne formulations are disclosed herein. In some embodiments, the amount of oil in an emulsion base (cream or lotion) is between 10-15% w/w. In further embodiments, the amount of oil in an emulsion base (cream or lotion) is less than 10%. To obtain a 1% w/w formulation of the free base dissolved in a dispersed oil phase, its solubility in that oil phase needs to be approximately 10% w/w. Radezolid free base was screened in oily excipients at a level of approximately 5% w/w. If an oily excipient could not dissolve at least 5% w/w, it would be unlikely to contribute to higher solubility in other oily excipients (i.e. low potential for synergy).

[11] = Granuloma pouch: bacterial burden and radezolid levels in pouch and plasma; type: in vivo; settings: FIGS. 3-4
P. granulosum ATCC 25746 [12] = test: Agar dilution MIC (CLSI reference method); type: cell-based
G. vaginalis ATCC 49145 = test: Broth microdilution MIC (CLSI); type: cell-based; settings: G. vaginalis 49145
G. vaginalis ATCC 14018 = test: Agar dilution MIC (CLSI reference method); type: cell-based; settings: G. vaginalis (isolates of Table 1)
[13] = system: mammalian cells (e.g., defense cells, macrophages, lung cells, and non-phagocytic cells); settings: cited from earlier work
P. granulosum ATCC 25746 [14] = test: Broth microdilution MIC (CLSI); type: cell-based
F. magna ATCC 15794 = test: Agar dilution MIC (CLSI reference method); type: cell-based
ten isolates (ATCC) = type: cell-based; settings: for all organisms
[15] = Solubility of salts in water, visual/microscopic
Procedure: Approximately 2-3.5 mg of each salt was weighed into a glass vessel at ambient temperature. HPLC grade water, 200 μL, was added to each and stirred with a stir bar for two hours. Samples were inspected for solubility both visually and/or microscopically using a Carl Zeiss SV8 stereomicroscope.

CC[C@H]1OC(=O)[C@H](C)[C@@H](O[C@H]2C[C@@](C)(OC)[C@@H](O)[C@H](C)O2)[C@H](C)[C@@H](O[C@@H]2O[C@H](C)C[C@H](N(C)C)[C@H]2O)[C@](C)(O)C[C@@H](C)CN(C)[C@H](C)[C@@H](O)[C@]1(C)O [Azithromycin, azithromycin]
MIC [1]: 128 µg/mL (≈ 171 µM)

CCC[C@@H]1C[C@@H](C(=O)N[C@@H]([C@H]2O[C@H](SC)[C@H](O)[C@@H](O)[C@H]2O)[C@H](C)Cl)N(C)C1 [Clindamycin, clindamycin]
MIC (S. aureus ATCC 29213 [2]): 0.25 µg/mL (≈ 0.588 µM) | MIC lower than radezolid (S. aureus ATCC 29213 [3]): 8 fold

C[C@H]1c2cccc(O)c2C(=O)C2=C(O)[C@]3(O)C(=O)C(C(N)=O)=C(O)[C@@H](N(C)C)[C@@H]3[C@@H](O)[C@@H]21 [DOX, doxycycline]
MIC lower than radezolid (S. aureus ATCC 29213 [3]): 4 fold | MIC more potent than radezolid ([4]; B. thetaiotaomicron): 4 fold | MIC [4]: 2 µg/mL (≈ 4.5 µM)

CC[C@H]1OC(=O)[C@H](C)[C@@H](O[C@H]2C[C@@](C)(OC)[C@@H](O)[C@H](C)O2)[C@H](C)[C@@H](O[C@@H]2O[C@H](C)C[C@H](N(C)C)[C@H]2O)[C@](C)(O)C[C@@H](C)C(=O)[C@H](C)[C@@H](O)[C@]1(C)O [ERY, erythromycin]
MIC [4]: 16 µg/mL (≈ 21.8 µM)

O=S(=O)(O)CCS(=O)(=O)O [Ethane-1,2-disulfonate]
Adjusted pH [5]: 3.6 | Native pH [5]: 2.0 | Solubility at Native pH ([5]; water, 23° C., HPLC): >133.2 mg/mL | Solubility at Adjusted pH ([5]; water, 23° C., HPLC, pH adjusted to approximately 3.5): >116.9 mg/mL | DVS Desorption: weight loss from 95 to 5% RH [6]: Desorption: 2.388% weight loss | DVS Sorption: weight loss upon equilibration at 5% RH [6]: Sorption: 0.017% weight loss

CC(=O)NC[C@H]1CN(c2ccc(-c3ccc(CNCc4c[nH]nn4)cc3)c(F)c2)C(=O)O1.Cl [Hydrochloride, (5S)—N-[3-(2-Fluoro-4′-{[(1H-[1,2,3]triazol-4-ylmethyl)-amino]-methyl}-biphenyl-4-yl)-2-oxo-oxazolidin-5-ylmethyl]-acetamide Chloride]
Solubility ([5]; pH 4.6, thermodynamic from solid, water, 23° C., HPLC, read-out: Solubility at Native pH): 1700 µg/mL | Adjusted pH [5]: 3.5 | Native pH [5]: 4.6 | DVS Desorption: weight loss from 95 to 5% RH [6]: Desorption: 0.069% weight loss | DVS Sorption: weight gain from 5 to 95% RH [6]: 0.064% weight gain from 5 to | DVS Sorption: weight gain upon equilibration at 5% RH [6]: Sorption: 0.03% weight gain | Solubility (physchem): > 100 µg/mL | Solubility ([7]; 50% Ethanol/50% phosphate buffer (pH = 7.4), 19-21° C.): <0.2 % w/w | Solubility ([7]; 50% Ethanol/50% water, 19-21° C.): <0.6 % w/w | Solubility ([7]; Diethylene glycol monoethyl ether (Transcutol), 19-21° C.): <0.2 % w/w | Solubility ([7]; Ethanol, 19-21° C.): <0.2 % w/w | Solubility ([7]; Glycerin, 19-21° C.): <0.2 % w/w | Solubility ([7]; Hexylene glycol, 19-21° C.): <0.2 % w/w | Solubility ([7]; PEG 300, 19-21° C.): <0.2 % w/w | Solubility ([7]; Phosphate buffer (pH = 7.4), 19-21° C.): <0.2 % w/w | Solubility ([7]; Propylene glycol, 19-21° C.): <0.2 % w/w

CC(=O)NC[C@H]1CN(c2ccc(N3CCOCC3)c(F)c2)C(=O)O1 [Linezolid, linezolid, reference compound]
MIC (S. aureus ATCC 29213 [2]): 2 µg/mL (≈ 5.93 µM) | bone marrow cellularity ([8]; rat, 100 mg/kg/day): decreased cellularity of sternal and femoral bone marrow | hematology at unscheduled euthanization ([9]; rat, 100 mg/kg/day, day 75): decreased red cell mass, absolute reticulocyte and neutrophil counts

Cc1ncc([N+](=O)[O-])n1CCO [MET, metronidazole]
MIC [4]: 4 µg/mL (≈ 23.4 µM)

CC(=O)NC[C@H]1CN(c2ccc(-c3ccc(CNCc4cnn[nH]4)cc3)c(F)c2)C(=O)O1 [Radezolid, N-[3-(2-Fluoro-4′-{[(1H-[1,2,3]triazol-4-ylmethyl)-amino]-methyl}-biphenyl-4-yl)-2-oxo-oxazolidin-5-(S)-ylmethyl]-acetamide]
Agar dilution MIC more potent than linezolid (P. acnes ATCC 11828): 4 fold | Solubility ([10]; Benzyl benzoate (BB)): <1.5 % w/w | Solubility ([10]; Cyclomethicone): <0.75 % w/w | Solubility ([10]; Diisopropyl adipate (DIA)): <1.5 % w/w | Solubility ([10]; Mineral oil): <1 % w/w | Solubility ([10]; Oleic acid): <0.75 % w/w | radezolid levels in granuloma pouch versus plasma over time [11]: remain high in granuloma pouch even as they decline in the plasma | Agar dilution MIC more potent than linezolid (P. granulosum ATCC 25746 [12]): 8 fold | Broth microdilution: more active than linezolid (G. vaginalis ATCC 49145): 8 fold | MIC (S. aureus ATCC 29213 [2]): 1 µg/mL (≈ 2.28 µM) | Agar dilution MIC more potent than linezolid (G. vaginalis ATCC 14018): 8 fold | survival ([8]; both, rat): 100% | safety in long-term rat studies, overall [8]: good safety | changes in hematology, coagulation, clinical chemistry, or urinalysis ([8]; rat): No test article-related changes were observed | accumulation in mammalian cells, greater extent than linezolid [13]: 17 fold | share accumulating in the cytosol of cells [13]: Approximately 60% | share accumulating in the lysosome [13]: approximately 40% | Broth microdilution: more active than linezolid (P. granulosum ATCC 25746 [14]): 8 fold | Safety margin (Rat NOAEL AUC/Human efficacious AUC) ([9]; rat 200 mg/kg Day 29 vs human 300 mg): 30.8x | Agar dilution MIC more potent than linezolid (F. magna ATCC 15794): 4 fold | agar dilution MICs, range over organisms (ten isolates (ATCC)): 0.06 to 1 µg/mL

O=C(O)c1ccccc1O [Salicylate]
Solubility [15]: <30 µg/mL

CN(C)[C@@H]1C(O)=C(C(N)=O)C(=O)[C@@]2(O)C(O)=C3C(=O)c4c(O)cccc4[C@@](C)(O)[C@H]3C[C@@H]12 [TET, tetracycline]
MIC [4]: 8 µg/mL (≈ 18 µM)

Fumarate
Solubility ([15]; HPLC grade water, ambient temperature): 2600 µg/mL

Phosphate
Solubility [15]: 1100 µg/mL
